The record followed here is patent US20180071367A1, “METHODS OF TREATING COGNITIVE IMPAIRMENTS OR DYSFUNCTION” (Oxeia Biopharmaceuticals, Inc., priority 2015, published 2018).

Where no end group is shown, it is not given here. The star is where a group is joined. Octanoyl = CCCCCCCC(=O)*

One assay deals with GHS-R (Homo sapiens, UniProt Q92847). In words: GHS-R antagonist activity, cell based assay (Table 3). To be noted: GHS-R antagonist activity in a cell based assay.
The test system of assay [1] is oxidative burst in inflammatory cells. Kind of assay: Oxidative burst (ROS) in inflammatory cells from brain tissue after mild brain injury (controlled cortical impact). In kind it is in vivo. The following applies: C57/B6 mice, mild BI by controlled cortical impactor, subcutaneous treatment, leukocytes isolated from brain tissue, DHR 123 flow cytometry, compared to mBI. The protocol:
Ghrelin variant administration reduces oxidative burst in inflammatory cells following mild BI. Since no well-accepted animal model exists for concussions, a very small cerebral lesion that closely mimics mild BI is used as a model of mild BI. C57/B6 mice anesthetized with 5% isoflurane in oxygen (1.7 L/min) are given 0.3 mg/kg buprenorphine subcutaneously for analgesia prior to infliction of the mild brain injury. Anesthesia is assessed by paw pinch reflex. After creating a burr hole through the dura with a dental drill, a lesion using a controlled cortical impactor (CCI) is used to create injury 1 mm lateral and posterior to the bregma (5.0 mm/sec at a depth of 1.0 mm).
Animals are separated into three treatment groups: 1) Sham, 2) mild BI, and 3) mild BI plus ghrelin variant. A variety of doses can be tested depending upon the particular ghrelin variant. For example, 1 to 50 μg at one or more time points. As one example, treatment with subcutaneous ghrelin variant: 1 dose of 10 μg following mild BI and additional dose 10 μg 1 hour after. […] The fluorescence is then measured (AFU), higher intensity means greater oxidative burst and, therefore greater concentration or amount of ROS. […] Oxidative burst, which is a marker for ROS, can be measured by respiratory burst using flow cytometry (e.g., FL1 channel with 488-nm laser).
In general terms: In flow cytometry, cells or beads pass a laser one at a time.

GHS-R, sequence (Q92847 whole entry): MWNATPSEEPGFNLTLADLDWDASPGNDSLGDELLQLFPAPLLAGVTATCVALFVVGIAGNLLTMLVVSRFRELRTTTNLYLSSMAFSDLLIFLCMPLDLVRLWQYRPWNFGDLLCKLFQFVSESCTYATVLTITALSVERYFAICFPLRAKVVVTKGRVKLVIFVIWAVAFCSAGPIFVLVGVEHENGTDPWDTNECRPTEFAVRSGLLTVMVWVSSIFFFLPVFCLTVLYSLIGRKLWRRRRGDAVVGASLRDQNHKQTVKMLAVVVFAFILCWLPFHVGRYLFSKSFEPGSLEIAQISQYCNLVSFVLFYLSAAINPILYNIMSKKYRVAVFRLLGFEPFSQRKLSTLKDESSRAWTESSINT

In the case of `CCN(CC)CCCS(=O)(=O)N[C@H](CCc1ccccc1)c1nc(-c2cncn2C)n[nH]1` [Compound 135], on GHS-R, the Ki is < 100 nM.

As for “ghrelin (GSS(Octanoyl)FLSPEHQRVQQRKESKKPPAKLQPR)”, the “oxidative burst in inflammatory cells following mBI, quantified by arbitrary fluorescence unit (AFU)” value in assay [1] was “reduced the oxidative burst compared to mBI”.

One may read the Ki as the equilibrium dissociation constant of an inhibitor or competing ligand from its target.
